This note sets out measurements from ChEMBL document CHEMBL1159319, “Deoxyartemisinin derivatives from photooxygenation of anhydrodeoxydihydroartemisinin and their cytotoxic evaluation” (2002).

Type in all cases: functional
Conditions in all cases: read-out: ED50 (the source's name)

One assay has as its system HL-60. As to the kind of experiment: Cytotoxicity against human HL-60(TB) cells.
In the next assay the test system is IGROV-1. As to the kind of experiment: Cytotoxicity against human IGROV1 cells.
For a further assay, the system named is SR. As to the kind of experiment: Cytotoxicity against human SR cells.
For the next assay, the system named is RPMI-8226. The experiment in a line: Cytotoxicity against human RPMI8226 cells.
Another assay has as its system CCRF-CEM. The experiment in a line: Cytotoxicity against human CCRF-CEM cells.
Another assay relates to BT-549. The experiment in a line: Cytotoxicity against human BT549 cells.
The test system of a further assay is K562. The experiment in a line: Cytotoxicity against human K562 cells.
The subject of another assay is HOP-92. The experiment in a line: Cytotoxicity against human HOP92 cells.
The next assay has as its system MCF7. As to the kind of experiment: Cytotoxicity against human MCF7 cells.

Each structure is given as a SMILES string. ≈ marks a conversion by molar mass, not a printed value.

For the molecule `C=C1C(=O)O[C@@H]2O[C@@]3(C)CC[C@H]4[C@H](C)CC[C@@H]1[C@@]24O3` [DEOXYARTEMISITENE], the EC50 in the assay on HL-60 stood at 0.69 µg/mL (≈ 2.61 µM); in the assay on IGROV-1 it was 0.89 µg/mL (≈ 3.37 µM); in the assay on SR it was 1.89 µg/mL (≈ 7.15 µM); in the assay with RPMI-8226, 1.68 µg/mL (≈ 6.36 µM); with CCRF-CEM it was 0.92 µg/mL (≈ 3.48 µM); in the assay on BT-549, 1.97 µg/mL (≈ 7.45 µM). Besides, the EC50 is 0.94 µg/mL (≈ 3.56 µM) in the assay on K562, 0.92 µg/mL (≈ 3.48 µM) with HOP-92 and 1.46 µg/mL (≈ 5.52 µM) in the assay on MCF7.
